Experimental data taken from ChEMBL document CHEMBL1201862, “PubChem BioAssay data set” (2004).
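In this assay, cells in 96-well plates receive the compound at five concentrations for 48 hours. Endpoints are linearly interpolated between the surrounding concentrations. Abbreviation: GI50, concentration required for 50% inhibition of growth.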 The source made the active and inactive calls. Cut-off read from the data, not from the text of the source: active = GI50 up to about 1.1 µM and inactive = higher.

Key:
Assay in all cases: NCI tumour cell line growth inhibition, 48 h
A498 = test system: A498
ACHN = test system: ACHN
HCC 2998 = test system: HCC 2998
HL-60 = test system: HL-60
HOP-92 = test system: HOP-92
Hs-578T = test system: Hs-578T
M14 = test system: M14
MCF7 = test system: MCF7
MDA-MB-435 = test system: MDA-MB-435
OVCAR-8 = test system: OVCAR-8
PC-3 = test system: PC-3
RPMI-8226 = test system: RPMI-8226
RXF 393 = test system: RXF 393
SF-268 = test system: SF-268
SK-MEL-2 = test system: SK-MEL-2
SR = test system: SR
TK-10 = test system: TK-10
U-251 = test system: U-251
UACC-257 = test system: UACC-257
UACC-62 = test system: UACC-62

| SMILES | GI50 (A498) | GI50 (ACHN) | GI50 (HCC 2998) | GI50 (HL-60) | GI50 (HOP-92) | GI50 (Hs-578T) | GI50 (M14) | GI50 (MCF7) | GI50 (MDA-MB-435) | GI50 (OVCAR-8) | GI50 (PC-3) | GI50 (RPMI-8226) | GI50 (RXF 393) | GI50 (SF-268) | GI50 (SK-MEL-2) | GI50 (SR) | GI50 (TK-10) | GI50 (U-251) | GI50 (UACC-257) | GI50 (UACC-62) |
| --- | --- | --- | --- | --- | --- | --- | --- | --- | --- | --- | --- | --- | --- | --- | --- | --- | --- | --- | --- | --- |
| CC1(C)C=C(/C=C2/N(S(=O)(=O)C(F)(F)F)C(/C=C3/N(S(=O)(=O)C(F)(F)F)C(C)(C#N)CC3(C)C)=CC2(C)C)N=C1/C=C1/CC(C)(C)C(=O)N1 (stereo not given) | 55.6 µM (inactive) | 23.7 µM (inactive) | 35.2 µM (inactive) | 1.41 µM (inactive) | 24.7 µM (inactive) | 16.2 µM (inactive) | 29.3 µM (inactive) | 9.29 µM (inactive) | 15 µM (inactive) | 4.57 µM (inactive) | 5.71 µM (inactive) | 3.93 µM (inactive) | 18.6 µM (inactive) | 5.79 µM (inactive) | 29.5 µM (inactive) | 2.8 µM (inactive) | 71.9 µM (inactive) | 24.7 µM (inactive) | 20.6 µM (inactive) | 14.4 µM (inactive) |
| Cc1cn(CCCCCCOC(=O)NC(CCCNC(=N)N)C(=O)O)c(=O)[nH]c1=O (stereo not given) | > 100 µM (inactive) | > 100 µM (inactive) | > 100 µM (inactive) | > 100 µM (inactive) | > 100 µM (inactive) | > 100 µM (inactive) | > 100 µM (inactive) | > 100 µM (inactive) | > 100 µM (inactive) | > 100 µM (inactive) | > 100 µM (inactive) | > 100 µM (inactive) | > 100 µM (inactive) | > 100 µM (inactive) | > 100 µM (inactive) | > 100 µM (inactive) | > 100 µM (inactive) | > 100 µM (inactive) | > 100 µM (inactive) | > 100 µM (inactive) |
| C#CCOC(=O)C(N)CSSCC(N)C(=O)O (stereo not given) | > 100 µM (inactive) | > 100 µM (inactive) | > 100 µM (inactive) | > 100 µM (inactive) | > 100 µM (inactive) | > 100 µM (inactive) | > 100 µM (inactive) | > 100 µM (inactive) | > 100 µM (inactive) | > 100 µM (inactive) | > 100 µM (inactive) | > 100 µM (inactive) | > 100 µM (inactive) | > 100 µM (inactive) | > 100 µM (inactive) | > 100 µM (inactive) | > 100 µM (inactive) | > 100 µM (inactive) | > 100 µM (inactive) | > 100 µM (inactive) |
| COc1cc2oc(=O)cc(C)c2cc1[N+](=O)[O-] | 28.4 µM (inactive) | 28.1 µM (inactive) | 14.6 µM (inactive) | 8.87 µM (inactive) | 17.1 µM (inactive) | 28.2 µM (inactive) | 16.7 µM (inactive) | 25.5 µM (inactive) | 20.1 µM (inactive) | 18.8 µM (inactive) | 27.9 µM (inactive) | 27 µM (inactive) | 15.1 µM (inactive) | 17.5 µM (inactive) | 12.4 µM (inactive) | 13 µM (inactive) | 35.7 µM (inactive) | 37.4 µM (inactive) | 16.3 µM (inactive) | 16.1 µM (inactive) |
| COC1=C2CC(C)CC(OC)C(OC(=O)CCCN)C(C)/C=C(\C)C(OC(N)=O)C(OC)/C=C\C=C(/C)C(=O)NC(=CC1=O)C2=O (stereo not given) | 16.4 µM (inactive) | 5.4 µM (inactive) | 10.1 µM (inactive) | 0.289 µM (active) | 4.23 µM (inactive) | 11.6 µM (inactive) | 4.56 µM (inactive) | 0.865 µM (active) | 2.97 µM (inactive) | 6.97 µM (inactive) | 9.2 µM (inactive) | 2.29 µM (inactive) | 3.12 µM (inactive) | 10.3 µM (inactive) | 12.1 µM (inactive) | 3.02 µM (inactive) | 7.16 µM (inactive) | 18.5 µM (inactive) | 5.64 µM (inactive) | 6 µM (inactive) |
| Cc1ccc(C(=O)NC2C(=O)NC(C(C)C)C(=O)N3CCCC3C(=O)N(C)CC(=O)N(C)C(C(C)C)C(=O)OC2C)c2c1Oc1c(c(C(=O)NC3C(=O)NC(C(C)C)C(=O)N4CCCC4C(=O)N(C)CC(=O)N(C)C(C(C)C)C(=O)OC3C)c3nc(-c4ccccc4)c(=O)oc3c1C)N2 (stereo not given) | < 0.001 µM (active) | 0.00515 µM (active) | < 0.001 µM (active) | 0.00995 µM (active) | 0.016 µM (active) | 0.00134 µM (active) | 0.0231 µM (active) | < 0.001 µM (active) | 0.00154 µM (active) | < 0.001 µM (active) | 0.00219 µM (active) | 0.00147 µM (active) | 0.00161 µM (active) | < 0.001 µM (active) | 0.00112 µM (active) | 0.01 µM (active) | 0.0578 µM (active) | < 0.001 µM (active) | 0.00871 µM (active) | < 0.001 µM (active) |
| O=S(=O)(O)c1ccc2c(/N=N/c3ccccc3)c(O)c(S(=O)(=O)O)cc2c1 | > 100 µM (inactive) | > 100 µM (inactive) | > 100 µM (inactive) | > 100 µM (inactive) | > 100 µM (inactive) | > 100 µM (inactive) | > 100 µM (inactive) | > 100 µM (inactive) | > 100 µM (inactive) | > 100 µM (inactive) | > 100 µM (inactive) | < 0.01 µM (active) | > 100 µM (inactive) | > 100 µM (inactive) | > 100 µM (inactive) | > 100 µM (inactive) | > 100 µM (inactive) | > 100 µM (inactive) | > 100 µM (inactive) | > 100 µM (inactive) |
